Key:
Type in all cases: in vivo
[1] = test system: Diabrotica balteata larvae; assay: Diabrotica test (larvae in soil); conditions: 20 ppm (mg/l soil), Diabrotica balteata larvae on maize in treated soil
[2] = test system: caterpillars of the army worm (Spodoptera exigua); assay: Spodoptera exigua test; conditions: 500 ppm, cabbage leaves dipped
Protocol: To produce a suitable preparation of active compound, 1 part by weight of active compound is mixed with the stated amounts of solvent and emulsifier, and the concentrate is diluted with emulsifier-containing water to the desired concentration.
Cabbage leaves (Brassica oleracea) are treated by being dipped into the preparation of active compound of the desired concentration and are populated with caterpillars of the army worm (Spodoptera exigua) while the leaves are still moist.
After the desired period of time, the kill in % is determined. 100% means that all caterpillars have been killed; 0% means that none of the caterpillars have been killed.

[3] = test system: Boophilus microplus resistent/SP-resistent Parkhurst-strain, adult sucked female; assay: Test with Boophilus microplus resistent/SP-resistent Parkhurst-strain; conditions: 100 μg animal, injected into the abdomen; oviposition of fertile eggs after 7 days
Protocol: […] More dilute concentrations are prepared by dilution with the same solvent.
The test is carried out in 5-fold determination. […] The control of activity is made after 7 days for oviposition of fertile eggs. Eggs whose fertility cannot be seen from the outside are stored in glass tubes in a climate chamber until the larvae have been hatched. An activity of 100% means, that no tick has hatched fertile eggs.

[4] = test system: adult Musca domestica, strain Reichswald (OP, SP, carbamate-resistent); assay: Test with flies (Musca domestica); conditions: 100 ppm; treated filter paper; time not given
Protocol: 20 mg of active compound are dissolved in 1 ml of dimethyl sulphoxide. More dilute concentrations are prepared by dilution with distilled water.
2 ml of the preparation of active compound are pipetted onto a filter paper dish (Ø 9.5 cm), which are placed in a Petri dish of corresponding diameter. After drying of the filter dishes 25 test animals are transferred in the Petri dishes and covered.
After 1, 3, 5, 24 and 48 hours (or after the times given in the tables below) the activity of the preparation of active compound is determined. 100% means, that all flies have been killed, 0% means, that none of the flies have been killed.

| SMILES | Kill rate in % after 7 d [2] | activity/kill rate in % [4] | also measured |
| --- | --- | --- | --- |
| N#Cc1cnn(C2CN(C(=O)Nc3ccc(SC(F)(F)F)cc3)N=C2c2ccc(Cl)cc2)c1 (stereo not shown) [drawing 37] |  |  | Kill rate in % after 10 d [1]: 100% |
| N#Cc1cnn(C2CN(C(=O)Nc3ccc(OC(F)(F)F)cc3)N=C2c2ccc(Cl)cc2)c1 (stereo not shown) [drawing 58] | 100% |  |  |
| N#Cc1cnn(C2CN(C(=O)Nc3ccc(C(F)(F)F)cc3)N=C2c2ccc(Cl)cc2)c1 (stereo not shown) [drawing 59] | 100% |  |  |
| N#Cc1cnn(C2CN(C(=O)Nc3ccc(SC(F)(F)F)cc3)N=C2c2ccc(Cl)cc2)c1 (stereo not shown) [drawing 60] | 100% |  |  |
| N#Cc1cnn(C2CN(C(=O)Nc3ccc(S(=O)(=O)C(F)(F)F)cc3)N=C2c2ccc(Br)cc2)c1 (stereo not shown) [drawing 91] |  |  | activity/kill rate in % [3]: 100% |
| N#CCN(C(=O)N1CC(n2cc(C#N)cn2)C(c2ccc(Cl)cc2)=N1)c1ccc(OC(F)(F)F)cc1 (stereo not shown) [drawing 92] |  |  | activity/kill rate in % [3]: 100% |
| N#Cc1cnn(C2CN(C(=O)Nc3ccc(OC(F)(F)F)cc3)N=C2c2ccc(Cl)cc2)c1 (stereo not shown) [drawing 93] |  | 30% |  |
| N#Cc1cnn(C2CN(C(=O)Nc3ccc(C(F)(F)F)cc3)N=C2c2ccc(Cl)cc2)c1 (stereo not shown) [drawing 94] |  | 30% |  |
| N#Cc1cnn(C2CN(C(=O)Nc3ccc(OC(F)(F)F)cc3)N=C2c2ccc(Br)cc2)c1 (stereo not shown) [drawing 95] |  | 75% |  |
| N#CCN(C(=O)N1CC(n2cc(C#N)cn2)C(c2ccc(Cl)cc2)=N1)c1ccc(OC(F)(F)F)cc1 (stereo not shown) [drawing 96] |  | 60% |  |

— US20090143454A1, “Pyrazoline Derivatives and Their Use As Pesticides” (BAYER CROPSCIENCE AG, priority 2001, published 2009)
